Legend:
[1] = test system: chronic dependence model; details: cited from earlier work
[2] = test system: acute dependence model; details: high doses; cited from earlier work
[3] = in vivo; compared with naloxone and naltrexone; cited from earlier work
[4] = solubility in a mixture of alcohol and water; assay type: physicochemical; details: compared with Form IB
[5] = resistance to degradation in air; assay type: physicochemical; details: compared with Form IB
[6] = water vapor sorption; assay type: physicochemical
Procedure: Water Vapor Sorption. Data were collected with a SGA-100 water vapor sorption balance (VTI Corporation, Hialeah, Fla.). A portion of the selected sample was weighed into a platinum sample pan and placed into the instrument. The sample was cycled from low (5%) relative humidity (RH) to high (95%) RH to low humidity (i.e., sorption and desorption events) at a constant temperature of 25° C., in 5% RH intervals. The sample was held at each interval until the equilibrium condition was met (i.e., 0.0005% for 3 min, with a maximum of 600 min).

[7] = relative stability of the crystalline forms; assay type: physicochemical; details: dihydrate form of Form IIIS
From the text: Above this humidity, Form IIIS absorbed approximately 1.4%-1.5% water at 95% RH.

[8] = slurry experiments (stability of the crystalline forms); assay type: physicochemical
Procedure: Slurry Experiments. The stability of the crystalline forms was analyzed using slurry experiments. A portion of the solvent of interest was saturated with 6-beta-naltrexol base or 6-beta-naltrexol hydrochloride in a small vial. Additional 6-beta-naltrexol base or 6-beta-naltrexol hydrochloride was then added to the vial, and the resulting slurry was stirred using a magnetic stir bar.

In the case of `Oc1ccc2c3c1OC1C(O)CC[C@@]4(O)[C@@H](C2)N(CC2CC2)CC[C@]314` (stereo partly drawn) [6-beta-naltrexol, morphinan-3,6,14-triol,17-(cyclopropylmethyl)-4,5-epoxy], the “fold less potent than naloxone in precipitating withdrawal” value ([1]; relative to naloxone) is listed as about 30 fold, the “fold less potent than naltrexone in precipitating withdrawal” value ([1]; relative to naltrexone) is listed as “approximately 77 fold” and the withdrawal precipitated [2] is listed as “only minimal withdrawal”. For the same compound, the duration of action [3] was “longer duration of action than naloxone and naltrexone”.
For `Oc1ccc2c3c1O[C@H]1[C@H](O)CC[C@@]4(O)[C@@H](C2)N(CC2CC2)CC[C@]314` [Form IIB, 6-beta-naltrexol base], the solubility [4] was “greater solubility in a mixture of alcohol and water than Form IB” and the “resistance to degradation in air” value [5] was “more resistant to degradation in air than Form IB”.
In the case of `Cl.Oc1ccc2c3c1O[C@H]1[C@H](O)CC[C@@]4(O)[C@@H](C2)N(CC2CC2)CC[C@]314` [Form IIIS, 6-beta-naltrexol hydrochloride], the stability to humidity ([6]; above 15% RH, 25° C.) is reported as “reasonably stable up to approximately 90% RH”, the “solid form at the conclusion of the sorption experiment (pXRD)” value ([6]; after sorption/desorption cycle 5%-95%-5% RH) is reported as “still comprised predominately Form IIIS” and the water absorbed ([6]; at 95% RH, 25° C.) is reported as 1.4%-1.5%. For the same compound, the hysteresis during desorption ([6]; desorption, 25° C.) was “minimal hysteresis”, the water lost ([6]; humidities below 15% RH, 25° C., of its original 8.9% water content) was “approximately 4.5%” and the “relative stability among crystalline forms” value [7] was “most stable of all the crystalline forms of 6-beta-naltrexol hydrochloride”.
In the case of `Cl.Oc1ccc2c3c1O[C@H]1[C@H](O)CC[C@@]4(O)[C@@H](C2)N(CC2CC2)CC[C@]314` [Form IIS, 6-beta-naltrexol hydrochloride], the “time the form was stable in slurry” value ([8]; isopropyl alcohol slurry) is reported as “at least 8 days”.
For `Cl.Oc1ccc2c3c1O[C@H]1[C@H](O)CC[C@@]4(O)[C@@H](C2)N(CC2CC2)CC[C@]314` [Form IVS, 6-beta-naltrexol hydrochloride], the “time the form was stable in slurry” value ([8]; ethyl alcohol slurry) was “at least 15 days”.

From patent publication US8227483B2, “Polymorphs of 6-beta-naltrexol” (Mallinckrodt LLC, priority 2008, dated 2012)
